Measurements: article PMC5967867, “An NMDAR positive and negative allosteric modulator series share a binding site and are interconverted by methyl groups” (eLife, 2018)
Values joined by “and” are separate entries in the source; they are usually repeats but may differ in a detail not shown here. Equal entries are not always repeated. Where two headings read alike, the source gives them in different places. Marks after values point to notes of the source that are not given here.

Legend:
[1] = biological target: GluN1/GluN2D NMDARs (Rattus norvegicus, UniProt P35439+Q62645); assay: Whole cell patch-clamp recordings, HEK293 cells expressing GluN1/GluN2D; assay type: cell-based; conditions: for kon / koff: HEK293; for kon: read-out: association rate kon; for koff: read-out: dissociation rate koff; for Kd: calculated from association and dissociation rates, HEK cells, read-out: kinetically-determined affinity constant Kd
Chain of GluN1/GluN2D NMDARs (Q62645 28-1323, other chains not shown): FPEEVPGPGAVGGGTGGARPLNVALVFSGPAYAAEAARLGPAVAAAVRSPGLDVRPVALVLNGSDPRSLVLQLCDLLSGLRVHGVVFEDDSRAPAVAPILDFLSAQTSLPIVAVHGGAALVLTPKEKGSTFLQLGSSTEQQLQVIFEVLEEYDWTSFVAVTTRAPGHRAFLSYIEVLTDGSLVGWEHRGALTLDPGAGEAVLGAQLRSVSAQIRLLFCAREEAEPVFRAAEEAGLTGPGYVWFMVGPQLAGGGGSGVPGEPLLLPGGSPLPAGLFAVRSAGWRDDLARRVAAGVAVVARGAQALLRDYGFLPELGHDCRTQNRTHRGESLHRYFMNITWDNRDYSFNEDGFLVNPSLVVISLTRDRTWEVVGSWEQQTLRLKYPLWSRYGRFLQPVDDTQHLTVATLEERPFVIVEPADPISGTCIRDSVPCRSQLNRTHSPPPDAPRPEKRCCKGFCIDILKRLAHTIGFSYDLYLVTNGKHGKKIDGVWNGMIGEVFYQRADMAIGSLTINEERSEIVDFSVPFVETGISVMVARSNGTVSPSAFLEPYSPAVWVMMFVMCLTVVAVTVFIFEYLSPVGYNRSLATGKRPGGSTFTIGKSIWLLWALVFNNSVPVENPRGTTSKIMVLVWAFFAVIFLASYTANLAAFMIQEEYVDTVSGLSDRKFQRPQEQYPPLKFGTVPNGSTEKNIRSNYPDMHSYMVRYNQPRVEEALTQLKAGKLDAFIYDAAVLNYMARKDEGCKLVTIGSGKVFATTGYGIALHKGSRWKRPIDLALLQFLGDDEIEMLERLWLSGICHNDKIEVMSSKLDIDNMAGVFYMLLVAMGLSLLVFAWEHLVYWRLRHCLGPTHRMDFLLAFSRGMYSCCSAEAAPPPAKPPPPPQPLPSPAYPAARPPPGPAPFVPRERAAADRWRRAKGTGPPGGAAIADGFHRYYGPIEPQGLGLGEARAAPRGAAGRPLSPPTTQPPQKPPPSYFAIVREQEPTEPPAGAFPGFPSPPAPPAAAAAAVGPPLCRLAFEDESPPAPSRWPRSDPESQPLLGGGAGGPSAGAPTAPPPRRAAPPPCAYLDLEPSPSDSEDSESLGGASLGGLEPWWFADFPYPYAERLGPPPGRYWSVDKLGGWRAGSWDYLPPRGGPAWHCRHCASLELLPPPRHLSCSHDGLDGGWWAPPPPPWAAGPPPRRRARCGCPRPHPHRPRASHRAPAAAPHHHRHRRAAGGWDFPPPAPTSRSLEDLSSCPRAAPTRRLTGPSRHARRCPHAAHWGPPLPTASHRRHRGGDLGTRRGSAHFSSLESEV
Description: We studied NMDARs expressed in HEK293 cells to investigate the time course of modulator action. […] These modulators were tested on GluN1/GluN2A and GluN1/GluN2D to see whether there were differences in modulation given the distinct properties of these NMDAR subtypes. […] The time-course of modulator binding of EU1794-2, EU1794-4 and EU1794-27 was also determined for GluN1/GluN2A (Figure 4C,D).
(§1) cDNAs for rat wild type NMDAR subunits GluN1-1a (GenBank U11418, U08261; hereafter GluN1 or GluN1a), GluN1-1b (U08263, hereafter GluN1b), GluN2A (D13211), GluN2B (U11419), GluN2C (M91563), and GluN2D (L31611, modified as described in [Monyer et al., 1994]) were provided by Drs. S. Heinemann (Salk Institute), S. Nakanishi (Kyoto University), and P. Seeburg (University of Heidelberg). Site-directed mutagenesis was conducted using the QuikChange kit (Agilent Technologies, Santa Clara, CA) following the recommended protocol. DNA sequencing was used to verify all mutations. The amino acid numbering system started with the initiating methionine as residue number one. For expression in Xenopus laevis oocytes, cDNA constructs were linearized by restriction enzymes, and subsequently used to synthesize in vitro cRNAs following the manufacturer’s protocol (mMessage mMachine, Ambion, ThermoFisher Scientific, Waltham, MA).
HEK293 cells (CRL-1573, ATCC, Manassas, VA) were maintained in a tissue culture room solely reserved for their culturing and transfected using a CaPO4 protocol to express the diheteromeric NMDARs as previously described ([Hansen et al., 2013]). Cell lines were obtained directly from the supplier, were expanded, frozen and kept in liquid nitrogen in a dewar. Mycoplasma testing was not performed. cDNA ratios for transfection were 1:1:1 (GluN2D) or 1:1:5 (GluN2A) for GluN1:GluN2:GFP.

[2] = biological target: GluN1/GluN2C NMDARs (Rattus norvegicus, UniProt P35439+Q00961); assay: Two-electrode voltage-clamp recordings, Xenopus laevis oocytes expressing GluN1/GluN2C; assay type: cell-based; conditions: for Modulation by 10 µM (% of control): 10 µM modulator; for Emax: read-out: Maximal Degree of Modulation (% of control)
Chain of GluN1/GluN2C NMDARs (Q00961 20-1237, other chains not shown): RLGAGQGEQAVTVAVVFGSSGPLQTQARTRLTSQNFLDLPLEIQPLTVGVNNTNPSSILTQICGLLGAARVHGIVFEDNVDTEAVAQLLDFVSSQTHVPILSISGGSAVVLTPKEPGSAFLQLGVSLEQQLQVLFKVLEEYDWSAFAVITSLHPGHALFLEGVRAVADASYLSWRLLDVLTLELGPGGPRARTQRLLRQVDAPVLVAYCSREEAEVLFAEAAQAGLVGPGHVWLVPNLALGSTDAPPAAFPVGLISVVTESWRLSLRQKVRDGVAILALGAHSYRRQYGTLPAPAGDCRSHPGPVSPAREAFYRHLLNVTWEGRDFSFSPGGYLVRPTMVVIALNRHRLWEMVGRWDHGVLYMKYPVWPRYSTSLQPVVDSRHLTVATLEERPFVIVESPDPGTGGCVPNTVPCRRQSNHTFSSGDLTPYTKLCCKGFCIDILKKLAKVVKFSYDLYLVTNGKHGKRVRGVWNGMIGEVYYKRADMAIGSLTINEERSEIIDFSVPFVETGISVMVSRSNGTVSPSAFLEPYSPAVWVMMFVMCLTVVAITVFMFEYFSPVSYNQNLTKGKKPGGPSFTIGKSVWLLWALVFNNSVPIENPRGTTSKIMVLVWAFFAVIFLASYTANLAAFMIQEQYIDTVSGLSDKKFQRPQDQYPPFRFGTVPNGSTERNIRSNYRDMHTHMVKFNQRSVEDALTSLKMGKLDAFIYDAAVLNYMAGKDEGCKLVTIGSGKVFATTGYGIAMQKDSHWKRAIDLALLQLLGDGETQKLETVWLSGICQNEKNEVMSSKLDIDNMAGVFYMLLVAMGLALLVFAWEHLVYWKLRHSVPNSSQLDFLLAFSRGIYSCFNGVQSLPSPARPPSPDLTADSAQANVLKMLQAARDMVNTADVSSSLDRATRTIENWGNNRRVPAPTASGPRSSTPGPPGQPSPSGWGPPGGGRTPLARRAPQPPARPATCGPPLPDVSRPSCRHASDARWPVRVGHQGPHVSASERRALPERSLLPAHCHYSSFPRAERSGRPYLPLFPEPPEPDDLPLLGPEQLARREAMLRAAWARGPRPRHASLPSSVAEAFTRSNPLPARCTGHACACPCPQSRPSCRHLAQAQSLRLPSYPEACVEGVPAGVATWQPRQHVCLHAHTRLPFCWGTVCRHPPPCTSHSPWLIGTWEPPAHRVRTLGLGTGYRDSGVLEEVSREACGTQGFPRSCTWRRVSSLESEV
Description: as §1
Xenopus laevis stage VI oocytes (Ecocyte Biosciences, Austin, TX) were injected as previously described ([Hansen et al., 2013]) 2–7 days prior to recording with cRNA encoding the NMDAR subunits and stored at 15°C in media containing (in mM) 88 NaCl, 2.4 NaHCO3, 1 KCl, 0.33 Ca(NO3)2, 0.41 CaCl2, 0.82 MgSO4, 5 Tris-HCl; pH was adjusted to 7.4 with NaOH and the solution supplemented with 1 U/mL penicillin, 0.1 mg/mL gentamicin sulfate, and 1 μg/mL streptomycin. Two-electrode voltage-clamp recordings were performed at room temperature (21–23°C) using different internal solutions for voltage and current electrodes (0.3 M and 3.0 M KCl, respectively). All extracellular solutions were made from a solution containing (in mM) 90 NaCl, 1 KCl, 10 HEPES, 0.5 BaCl2, 0.01 EDTA (pH 7.4 with NaOH). Experiments were performed using an eight port Modular Valve Positioner (Hamilton Company, Reno, NV) and controlled by custom software (Easy Oocyte, Emory University, Atlanta, GA)to exchange solutions. Oocyte currents were recorded at a holding potential of −40 mV using a two-electrode voltage-clamp amplifier (OC-725B or OC-725C, Warner Instruments, Hamden, CT). […] In MTSEA experiments, fresh MTSEA solutions (0.2 mM) were prepared and utilized in less than 30 min to limit compound degradation.
Measurements are given as mean ± SEM unless otherwise indicated. The number of replicate experiments used was chosen to ensure a power level of at least 0.80 when α = 0.05 and when detecting appropriate effect sizes. EC50 and IC50 values and confidence intervals reported were calculated by averaging the log(EC50) or log(IC50) value, determining confidence intervals for mean log(EC50) or log(IC50), and converting back to units of molarity. Statistical significance evaluations (α set to 0.05) were performed using a one-way ANOVA with Dunnett’s multiple comparison test, a paired t–test, or other appropriate tests as described.

[3] = glutamate/glycine 100/30 µM, no second modulator (+EU1794-27 0 µM), read-out: IC50 (µM) [conf. int.]
[4] = saturating glutamate/glycine 100/30 µM, mean [95% CI], read-out: EC50 (µM) [conf. int.]
[5] = saturating glutamate/glycine 100/30 µM, mean ± SEM
[6] = Glu/Gly 1/0.3 µM (sub-saturating)
[7] = sub-saturating glutamate/glycine 1/0.3 µM, read-out: EC50 (µM) [conf. int.]
[8] = sub-saturating glutamate/glycine 1/0.3 µM
[9] = concentration dependence of linear component of time course

In the case of `CCOC(=O)c1c(NC(=O)CC2SC(=N)NC2=O)sc2c1CCC(C)C2` (centres unmarked) [EU1794-2, ethyl 2-(2-(2-imino-4-oxothiazolidin-5-yl)acetamido)-6-methyl-4,5,6,7-tetrahydrobenzo[b]thiophene-3-carboxylate], the kon [1] is reported as 430000 M⁻¹ s⁻¹, the koff [1] is reported as 0.495 s⁻¹ and the Kd [1] is reported as 1.1 µM and 1.14 µM. For the same compound, the “Modulation by 10 µM (% of control)” value ([2]; Glu/Gly 0.6/0.2 µM (sub-saturating)) was 43 ± 2.1 % of control, the “Modulation by 10 µM (% of control)” value ([2]; Glu/Gly 100/30 µM) was 16 ± 1.0 % of control and the IC50 ([2]; +EU1794-27 3 µM, glutamate/glycine 100/30 µM, read-out: EU1794-2 IC50 (µM) [conf. int.]) was 1.2 µM. The IC50 ([2]; +EU1794-27 10 µM, glutamate/glycine 100/30 µM, read-out: EU1794-2 IC50 (µM) [conf. int.]) was 2.4 µM, the IC50 ([2]; +EU1794-27 20 µM, glutamate/glycine 100/30 µM, read-out: EU1794-2 IC50 (µM) [conf. int.]) was 6 µM and the IC50 [2, 3] was 0.21 µM. For the same compound, the EC50 [2, 4] was 0.26 µM, the Emax [2, 5] was 14% and the EC50 ([2]; sub-saturating glutamate/glycine 0.6/0.2 µM, read-out: EC50 (µM) [conf. int.]) was 0.72 µM. It also gave an Emax ([2]; sub-saturating glutamate/glycine 0.6/0.2 µM) of 41%.
For `CCOC(=O)c1c(NC(=O)CC2SC(=N)NC2=O)sc2c1CCCC2` (centres unmarked) [EU1794-4, ethyl 2-(2-(2-imino-4-oxothiazolidin-5-yl)acetamido)-4,5,6,7-tetrahydrobenzo[b]thiophene-3-carboxylate], the kon [1] was 1.12e+06 M⁻¹ s⁻¹, the koff [1] was 4.66 s⁻¹ and the Kd [1] was 4.2 µM and 4.16 µM. The “Modulation by 10 µM (% of control)” value ([2]; Glu/Gly 0.3/0.09 µM (sub-saturating)) was 660 ± 110 % of control, the “Modulation by 10 µM (% of control)” value [2, 6] was 140 ± 12 % of control and the “Modulation by 10 µM (% of control)” value ([2]; Glu/Gly 100/30 µM) was 54 ± 1.6 % of control. The “Fold Difference (glutamate EC50)” value ([2]; control vs 10 µM EU1794-4) was 3.2^†, the “Fold Difference (glycine EC50)” value ([2]; control vs 10 µM EU1794-4) was 4.6^† and the IC50 [2, 3] was 0.42 µM. The EC50 [2, 4] was 0.42 µM, the Emax [2, 5] was 52% and the EC50 [2, 7] was 15 µM. For the same compound, the Emax [2, 8] was 220%.
With `CC(C)(C)OC(=O)c1c(NC(=O)CC2SC(=N)NC2=O)sc2c1CCCC2` (centres unmarked) [EU1794-27, tert-butyl 2-(2-(2-imino-4-oxothiazolidin-5-yl)acetamido)-4,5,6,7-tetrahydrobenzo[b]thiophene-3-carboxylate] the kon [1] was 187000 M⁻¹ s⁻¹, the koff [1] was 0.802 s⁻¹ and the Kd [1] was 4.3 µM. The “association linear component slope mon” value [1, 9] was −0.98 pA/(ms*µM), the “dissociation linear component slope moff” value [1, 9] was 0.62 pA/(ms*µM) and the “Modulation by 10 µM (% of control)” value [2, 6] was 480 ± 31 % of control. The “Modulation by 10 µM (% of control)” value ([2]; Glu/Gly 100/30 µM) was 190 ± 10 % of control, the EC50 ([2]; +EU1794-2 1 µM, glutamate/glycine 100/30 µM, read-out: EU1794-27 EC50 (µM) [conf. int.]) was 7.3 µM and the EC50 ([2]; +EU1794-2 3 µM, glutamate/glycine 100/30 µM, read-out: EU1794-27 EC50 (µM) [conf. int.]) was 7.3 µM. The “Fold Difference (glutamate EC50)” value ([2]; control vs 10 µM EU1794-27) was 3.3^†, the “Fold Difference (glycine EC50)” value ([2]; control vs 10 µM EU1794-27) was 2.4 and the EC50 [2, 4] was 2.8 µM. The Emax [2, 5] was 230%, the EC50 [2, 7] was 5 µM and the Emax [2, 8] was 680%.
